# Measured values: patent US10213445B2, “Compositions and methods of diazeniumdiolate-based prodrugs for treating cancer” (ARIZONA BOARD OF REGENTS ON BEHALF OF THE UNIVERSITY OF …, priority 2014, dated 2019)
# Assays:
# MDA-MB-231 xenograft = conditions: SCID mice, 17 and 50 mg kg^−1, compared to control; cited from earlier work
# PARP = target: T1, PARP (Homo sapiens, UniProt P09874); conditions: caspase-3 null MCF-7 cells; cited from earlier work
# T1 construct: on PARP activity has been determined in caspase-3 null MCF-7 cells; host or cells: MCF-7
# T1 sequence (P09874 whole entry): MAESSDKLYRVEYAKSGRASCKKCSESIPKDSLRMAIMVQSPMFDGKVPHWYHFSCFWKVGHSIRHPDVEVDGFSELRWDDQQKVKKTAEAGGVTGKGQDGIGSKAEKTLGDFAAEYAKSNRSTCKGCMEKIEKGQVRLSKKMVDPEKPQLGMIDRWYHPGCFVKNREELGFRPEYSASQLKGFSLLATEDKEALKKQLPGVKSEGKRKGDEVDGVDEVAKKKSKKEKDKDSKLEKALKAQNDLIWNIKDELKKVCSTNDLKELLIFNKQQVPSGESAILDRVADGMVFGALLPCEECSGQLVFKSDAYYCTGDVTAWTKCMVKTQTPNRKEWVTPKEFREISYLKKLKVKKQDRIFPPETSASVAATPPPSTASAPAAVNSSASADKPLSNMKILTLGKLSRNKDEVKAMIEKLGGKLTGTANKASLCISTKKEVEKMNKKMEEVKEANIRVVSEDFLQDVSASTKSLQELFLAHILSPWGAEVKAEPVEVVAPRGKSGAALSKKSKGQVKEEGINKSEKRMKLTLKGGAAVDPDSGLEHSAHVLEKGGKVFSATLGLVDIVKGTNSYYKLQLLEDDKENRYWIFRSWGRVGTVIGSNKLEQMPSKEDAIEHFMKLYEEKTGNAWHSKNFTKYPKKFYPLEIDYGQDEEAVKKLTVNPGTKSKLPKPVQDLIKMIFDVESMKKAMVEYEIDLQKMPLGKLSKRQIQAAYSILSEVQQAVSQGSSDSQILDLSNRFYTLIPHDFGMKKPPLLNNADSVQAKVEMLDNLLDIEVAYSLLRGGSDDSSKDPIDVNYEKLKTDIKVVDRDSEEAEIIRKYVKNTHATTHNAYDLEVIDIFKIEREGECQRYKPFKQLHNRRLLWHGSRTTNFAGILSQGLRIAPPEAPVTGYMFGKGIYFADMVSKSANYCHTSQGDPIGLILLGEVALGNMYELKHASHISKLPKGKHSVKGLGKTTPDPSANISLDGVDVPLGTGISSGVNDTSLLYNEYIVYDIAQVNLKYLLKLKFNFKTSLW
# [1] = tested on: angiogenesis in mouse tumor specimens; conditions: high concentration; cited from earlier work
# [2] = tested on: vascular endothelial growth factor (VEGF); conditions: high concentration; cited from earlier work
# [3] = target: hypoxia-inducible factor (HIF) 1α (Homo sapiens, UniProt Q16665); conditions: high concentration, human breast cancer cells; cited from earlier work
# hypoxia-inducible factor (HIF) 1α, sequence (Q16665 whole entry): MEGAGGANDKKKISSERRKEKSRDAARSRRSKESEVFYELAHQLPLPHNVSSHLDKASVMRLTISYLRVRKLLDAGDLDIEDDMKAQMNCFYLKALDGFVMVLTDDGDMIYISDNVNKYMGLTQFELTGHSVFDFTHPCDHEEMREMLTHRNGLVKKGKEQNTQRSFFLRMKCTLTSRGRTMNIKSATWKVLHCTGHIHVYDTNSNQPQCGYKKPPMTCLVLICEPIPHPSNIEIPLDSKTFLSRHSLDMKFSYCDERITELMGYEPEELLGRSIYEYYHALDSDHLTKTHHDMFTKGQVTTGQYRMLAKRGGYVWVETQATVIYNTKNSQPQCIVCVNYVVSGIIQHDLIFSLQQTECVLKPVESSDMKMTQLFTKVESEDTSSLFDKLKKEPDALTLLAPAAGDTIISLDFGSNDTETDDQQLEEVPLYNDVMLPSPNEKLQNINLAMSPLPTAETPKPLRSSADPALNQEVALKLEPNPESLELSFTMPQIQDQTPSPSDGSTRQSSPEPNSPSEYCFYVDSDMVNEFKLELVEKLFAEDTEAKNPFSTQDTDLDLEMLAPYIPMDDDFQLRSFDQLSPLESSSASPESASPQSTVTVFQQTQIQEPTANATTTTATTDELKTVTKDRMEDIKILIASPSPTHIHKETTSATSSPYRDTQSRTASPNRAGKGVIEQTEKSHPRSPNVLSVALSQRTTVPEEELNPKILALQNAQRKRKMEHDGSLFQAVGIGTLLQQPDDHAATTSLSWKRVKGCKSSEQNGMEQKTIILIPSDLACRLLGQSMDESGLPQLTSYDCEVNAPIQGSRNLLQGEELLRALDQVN
# MDA-MB-231 xenografts = assay: MDA-MB-231-GFP xenograft growth and brain metastasis in nude mice; type: in vivo; conditions: daily injection of equimolar doses for five weeks, vs control
# Description: The cells were allowed to grow for 14 d, and the animals (40) were randomly divided into four groups (control, aspirin, IPA/NO-aspirin or DEA/NO-aspirin). Treated groups were injected daily with equimolar doses of DEA/NO-aspirin or IPA/NO-aspirin (16 mg kg^−1) or aspirin (9 mg kg^−1)) or with DMSO for the next five weeks.
# For examples utilizing mouse tumor model methods, the following procedure was instituted. Analysis of tumor growth was carried out using protocols approved by the Committee on the Ethics of Animal Experiments of the National Cancer Institute (RBB-144) and adhered with the recommendations in the United States National Research Council's “Guide for the Care and Use of Laboratory Animals,” the United States Public Health Service's “Guide for the Care and Use of Laboratory Animals” and the “Policy on Humane Care and Use of Laboratory Animals”. The vivarium was maintained at 23° C. on a 12 h light/12 h dark cycle with ad libitum access to food and water. Nude mice (n=40) under general anesthesia were implanted with 7.5×10^5 MDA-MB-231 cells transfected with GFP by injection underneath the fourth left mammary gland. Prior to implantation, pedal withdrawal and eyelid reflexes were examined to ensure that mice were under stage III of anesthesia. At 14 days post-inoculation, the mice were randomly divided into four groups and treated by daily injection of equimolar doses (10 μL of 100 mM stock) of aspirin (9.00 mg kg^−1), IPA/NO-aspirin (15.8 mg kg^−1) or DEA/NO-aspirin (16.3 mg kg^−1) or with vehicle (DMSO). After five weeks, the tumor size was measured using in vivo fluorescent imaging for quantification of the GFP tag. In brief, mice were under general anesthesia throughout the whole body imaging process, and GFP signals were captured and quantified in an Xenogen IVIS 100 Imaging System according to the manufacturer's protocol. To assess metastasis in the brain, the animals were subsequently sacrificed following the approved method and guidelines.
# MDA-MB-231 cells = assay: Oxidation of DCF (oxidant level) in cells; type: cell-based, human; conditions: 100 μM, 37° C., MDA-MB-231 as representative example
# Description: DCF loaded cells were treated with IPA/NO-aspirin (blue), DEA/NO-aspirin (green), IPA/NO (magenta), DEA/NO (brown), aspirin (red) or DMSO (0.1%; black) at 37° C., and the fluorescence at 535 nm was measured in a time-dependent manner. Data are plotted as mean±SD (n=4).
# BCL-2 = BCL-2 expression; type: cell-based; conditions: FIG. 18
# ER-α = ER-α levels (mRNA of ER1) in ER-α(−) cells; type: cell-based; conditions: FIG. 20
# [4] = tested on: various cancer cells lines; conditions: read-out: IC50 (cytotoxicity); cited from earlier work
# [5] = Decomposition kinetics by UV spectrophotometry in PBS; type: physicochemical; conditions: for pH dependence of hydrolysis rate: 37° C.
# Description: FIGS. 3A and 3B are graphs illustrating the pH-dependence of the rate constant of decomposition of (FIG. 3A) 1 (100 or 200 μM) and (FIG. 3B) 2 (100 μM) at 37° C. in PBS containing 50 μM DTPA measured at 250 nm (mean±SEM, n≥3).
# (§1) The rate constants of decomposition were measured spectrophotometrically by monitoring the decrease in absorbance of peaks at ^˜240-250 nm characteristic of the diazeniumdiolate functionality. The hydrolysis medium consisted of the metal chelator diethylenetriaminepentaacetic acid (DTPA, 50 μM) in calcium- and magnesium-free Dulbecco's phosphate-buffered saline (PBS, pH 7.4). UV-visible spectroscopy was performed with a Hewlett-Packard 8453 diode-array spectrophotometer equipped with Agilent 89090A thermostat set to 37° C. The spectrophotometer was blanked after warming the cuvette containing buffer at the appropriate pH in the instrument heat block for 5 min. For esterase-containing reactions, porcine liver esterase (20 μL; Sigma; suspension in 3.2 M (NH4)2SO4, pH 8) was added to the reaction buffer before blanking. Upon addition of IPA/NO (1) or AcOM-IPA/NO (2) (≤10 μL of stock), the cuvette was capped and inverted to mix. Spectra were collected at 0.5- to 60-s intervals for time periods of 2-120 min or until A∞<0.05. Kinetic analysis was performed by fitting the data to an exponential decay (A=ΔAe^−kt+A∞) using KaleidaGraph v.3.1.
# porcine liver esterase = assay: Esterase-catalyzed hydrolysis; type: in vitro ADME
# Description: FIGS. 4A-C are graphs illustrating spontaneous hydrolysis (FIGS. 4A and 4B) and esterase-catalyzed hydrolysis (FIG. 4C) of 2 in an embodiment of the invention. In FIG. 4A, spectra were collected every 60 s (10-min intervals shown) after dissolving 2 in PBS (pH 7.4) at 37° C., and only loss of the parent compound was observed. In FIG. 4B, the pH was elevated to 12, and scans were collected every 0.5 s (through 2.5 s and 3.5, 5.5, 9.5, and 54.5 shown). In FIG. 4C, porcine liver esterase (20 μL in 3 mL) was added (pH 7.4), and spectra were collected every 10 s. Hydrolysis of 2 (λmax 236 nm) to 1 (λmax 250 nm) was complete within 40 s (0.067 s^−1) under these conditions. […] Elevation of the intensity near 200 nm indicated formation of autoxidation products such as nitrite. Deaeration inhibited this peak (data not shown).
# as §1
# [6] = Alkaline hydrolysis at pH 11 followed by NMR; type: physicochemical
# Description: Organic products of the hydrolysis of 1 and 2 were quantified by integrating their NMR spectra. For pH 7.4, 3.9 mM solutions in 0.1 M phosphate buffer were employed. For pH 11, 4.9 mM solutions of 1 and 2 in 50 mM sodium carbonate were studied. Samples were run on a Varian Inova 400 MHz NMR with a Dell Precision 390 workstation. The samples were run at 37° C. and water suppression was achieved by using the preset pulse sequence. Peaks were identified by comparison with authentic standards.
# Differences in time course as well as stoichiometry in the alkaline hydrolysis of 1 and 2 also matched the expectation based on the HNO/NO yield and rate data. […] Compound 2, on the other hand, completely dissociated within 5 min at 37° C. in a pH 11 carbonate buffer. […] However, the amine was undetectable.
# MB-231 cells = assay: cells; conditions: Homo sapiens, 48 h
# Description: In this example, a 3-(4,5-dimethylthiazol-2-yl)-2,5-diphenyltetrazolium bromide (MTT)viability assay was used to evaluate combination therapy to on the cytotoxicity of cancer cells using compound embodiments.
# Cells were plated at 8,000-10,000 cells per well in a 96-well plate and grown overnight. […] Thereafter, 10 μL of 5 mg/mL MTT was added to each well, and the plate was incubated for 1 hour at 37° C. After removal of the media, 100 μL of DMSO was added to each well, and the absorbance was recorded at 550 nm. Growth inhibition is reported as the percentage of the corresponding control.
# [7] = porcine liver esterase 20 μL in 3 mL, pH 7.4
structure (smiles),measurement,setting,value
"[Na+].[Na+].[O-][N+]([O-])=NO [Angeli's salt, Na2N2O3]",tumor growth,MDA-MB-231 xenograft,some inhibition of tumor growth
same,inhibitory effect on PARP activity,PARP,"rapid, but required rather high concentrations of donor"
same,angiogenesis,[1],inhibited angiogenesis
same,serum VEGF levels,[2],decreased
same,HIF 1α,[3],inhibited
"CC(=O)Oc1ccccc1C(=O)O [aspirin, reference compound]","size of the primary tumor (GFP fluorescence intensity, tumor mass)",MDA-MB-231 xenografts,did not significantly decrease
same,oxidation of DCF (fluorescence intensity),MDA-MB-231 cells,ineffective compared to control
same,BCL-2 expression,BCL-2,induce BCL-2 expression
same,ER-α levels,ER-α,increases ERα levels
same,IC50,[4],> 1000 µM
"CC(=O)OCO/N=[N+](\[O-])NC(C)C [Compound 2, O^2-(acetoxymethyl)1-(isopropylamino)diazen-1-ium-1,2-diolate]",pH dependence of hydrolysis rate,[5]; PBS with 50 μM DTPA,essentially first order in hydroxide ion concentration between pH 5 and 11
same,hydrolysis rate relative to 1,[5]; physiological pH,an order of magnitude slower
same,rate of hydrolysis of 2 to 1,porcine liver esterase; [7],0.067 s⁻¹
same,time to complete hydrolysis of 2 to 1,porcine liver esterase; [7],≤ 40 s
same,time to complete dissociation,"[6]; 37° C., pH 11 carbonate buffer",≤ 5 min
CC/C(=C(\c1ccccc1)c1ccc(OCCN(C)C)cc1)c1ccccc1 [tamoxifen],viability at 10 µM,MB-231 cells,76%
"CC(C)N[N+]([O-])=N[O-].[Na+] [Compound 1, O^2-Sodium 1-(N-Isopropylamino)diazen-1-ium-1,2-diolate, reference compound]",pH dependence of hydrolysis rate,[5]; PBS with 50 μM DTPA,"slowed as the pH was increased from 3 to 10, with a small increase in rate thereafter"
same,rate of decay of 1,"[5]; PBS with 50 μM DTPA, 37° C. (FIG. 3A)",0.0012 s⁻¹
same,rate of decay of 1,"porcine liver esterase; 1 formed from 2 with esterase, pH 7.4 (FIG. 4C)",0.0033 s⁻¹
same,hydrolysis at pH 11,[6]; pH 11,hydrolyzed slowly
same,hydrolysis rate relative to 2 (more slowly),[6]; pH 11,100 fold
same,oxidation of DCF (fluorescence intensity),MDA-MB-231 cells,"oxidized DCF, but to a much reduced extent"
"CCN(CC)[N+]([O-])=N[O-].[Na+] [DEA/NO, O^2-Sodium 1-(N,N-Diethylamino)diazen-1-ium-1,2-diolate]",oxidation of DCF (fluorescence intensity),MDA-MB-231 cells,"oxidized DCF, but to a much reduced extent"
same,inhibitory effect on PARP activity,PARP,"rapid, but required rather high concentrations of donor"
